Data from patent publication US20130040935A1, “CYCLIC KETO-ENOLS FOR THERAPY” (BAYER INTELLECTUAL PROPERTY GMBH, priority 2010, published 2013).
Where two headings read alike, the source gives them in different places.

Key:
[1] = target: human ACC2 (acetyl-coenzyme A carboxylase 2) (Homo sapiens, UniProt O00763); experiment: Human ACC2 enzyme assay, Assay B2 (ADP-Glo);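 also: human ACC2 activity read as ADP product, detected by luciferase glow luminescence after residual ATP removal, enzyme near 2 ng/µl in linear range, detection steps at 22 °C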
Procedure: The hACC2-inhibitory action of the substances of the present invention was measured in the hACC2 assay described in the paragraphs below.
Essentially, the enzyme activity is measured by quantifying the adenosine diphosphate (ADP) formed as a byproduct of the enzyme reactions using the ADP-Glo™ detection system from Promega. In this test, initially the adenosine triphosphate (ATP) not consumed in the enzyme reaction is converted quantitatively with an adenylate cyclase (“ADP-GLO reagent”) into cAMP, the adenylate cyclase is then stopped and (“kinase detection reagent”) the ADP formed is subsequently converted into ATP, which is converted in a luciferase-based reaction into a glow luminescence signal.
The concentration of the hACC2 was adapted to the respective activity of the enzyme and adjusted such that the assay operated in the linear range. Typical concentrations were in the range of 2 ng/μl. […] The amount of light emitted was taken as a measure for the amount of ADP formed and thus for the enzyme activity of the hACC2.

MCF7 = experiment: Cell proliferation assay (CellTiter-Glo, 96 h), MCF7; assay type: cell-based; details: Homo sapiens
Procedure: In accordance with the invention, the substances were tested in cell-based assays for the ability of the substances of inhibiting tumour cell proliferation after a 96-hour incubation with the substance. Cell viability was tested using the CellTiter-Glo® luminescent cell viability assay (Promega). The cells were sown at a density of 2000-5000 cells/well (depending on the cell line) in 100 μl growth medium on 96-well microtitre plates. For each cell line examined, cells were sown on a separate plate to determine the luminescence at t=0 hours and t=96 hours. After overnight incubation at 37° C., the luminescence values for the t=0 samples were determined. The dose plates for the t=96 hours points in time were treated with substances diluted with growth medium. The cells were then incubated at 37° C. for 96 hours, and the luminescence values for the t=96 hours sample were then determined. For data analysis, the t=0 values were subtracted from the t=96 hour values for treated and untreated samples. The differences in luminescence in percent between substance-treated samples and control values were used to determine the growth inhibition in percent.
The substances were tested in the following cell lines which represent the stated indications in an exemplary manner: […]

[2] = target: T1, human ACC1 (acetyl-coenzyme A carboxylase alpha transcript variant 1) (Homo sapiens, UniProt Q13085); experiment: Human ACC1 enzyme assay, Assay B1 (ADP-Glo); assay type: biochemical
T1 construct: FLAG (C); made in house; host or cells: baculovirus-infected insect cells (Hi5)

[3] = MCF7, Table 7, 96-hour incubation
[4] = Assay B1, read-out: ACC 1 (=B1) IC50
[5] = MCF7, Table 9a, 96-hour incubation

Chain of human ACC2 (acetyl-coenzyme A carboxylase 2) (O00763 27-2458 limits assumed): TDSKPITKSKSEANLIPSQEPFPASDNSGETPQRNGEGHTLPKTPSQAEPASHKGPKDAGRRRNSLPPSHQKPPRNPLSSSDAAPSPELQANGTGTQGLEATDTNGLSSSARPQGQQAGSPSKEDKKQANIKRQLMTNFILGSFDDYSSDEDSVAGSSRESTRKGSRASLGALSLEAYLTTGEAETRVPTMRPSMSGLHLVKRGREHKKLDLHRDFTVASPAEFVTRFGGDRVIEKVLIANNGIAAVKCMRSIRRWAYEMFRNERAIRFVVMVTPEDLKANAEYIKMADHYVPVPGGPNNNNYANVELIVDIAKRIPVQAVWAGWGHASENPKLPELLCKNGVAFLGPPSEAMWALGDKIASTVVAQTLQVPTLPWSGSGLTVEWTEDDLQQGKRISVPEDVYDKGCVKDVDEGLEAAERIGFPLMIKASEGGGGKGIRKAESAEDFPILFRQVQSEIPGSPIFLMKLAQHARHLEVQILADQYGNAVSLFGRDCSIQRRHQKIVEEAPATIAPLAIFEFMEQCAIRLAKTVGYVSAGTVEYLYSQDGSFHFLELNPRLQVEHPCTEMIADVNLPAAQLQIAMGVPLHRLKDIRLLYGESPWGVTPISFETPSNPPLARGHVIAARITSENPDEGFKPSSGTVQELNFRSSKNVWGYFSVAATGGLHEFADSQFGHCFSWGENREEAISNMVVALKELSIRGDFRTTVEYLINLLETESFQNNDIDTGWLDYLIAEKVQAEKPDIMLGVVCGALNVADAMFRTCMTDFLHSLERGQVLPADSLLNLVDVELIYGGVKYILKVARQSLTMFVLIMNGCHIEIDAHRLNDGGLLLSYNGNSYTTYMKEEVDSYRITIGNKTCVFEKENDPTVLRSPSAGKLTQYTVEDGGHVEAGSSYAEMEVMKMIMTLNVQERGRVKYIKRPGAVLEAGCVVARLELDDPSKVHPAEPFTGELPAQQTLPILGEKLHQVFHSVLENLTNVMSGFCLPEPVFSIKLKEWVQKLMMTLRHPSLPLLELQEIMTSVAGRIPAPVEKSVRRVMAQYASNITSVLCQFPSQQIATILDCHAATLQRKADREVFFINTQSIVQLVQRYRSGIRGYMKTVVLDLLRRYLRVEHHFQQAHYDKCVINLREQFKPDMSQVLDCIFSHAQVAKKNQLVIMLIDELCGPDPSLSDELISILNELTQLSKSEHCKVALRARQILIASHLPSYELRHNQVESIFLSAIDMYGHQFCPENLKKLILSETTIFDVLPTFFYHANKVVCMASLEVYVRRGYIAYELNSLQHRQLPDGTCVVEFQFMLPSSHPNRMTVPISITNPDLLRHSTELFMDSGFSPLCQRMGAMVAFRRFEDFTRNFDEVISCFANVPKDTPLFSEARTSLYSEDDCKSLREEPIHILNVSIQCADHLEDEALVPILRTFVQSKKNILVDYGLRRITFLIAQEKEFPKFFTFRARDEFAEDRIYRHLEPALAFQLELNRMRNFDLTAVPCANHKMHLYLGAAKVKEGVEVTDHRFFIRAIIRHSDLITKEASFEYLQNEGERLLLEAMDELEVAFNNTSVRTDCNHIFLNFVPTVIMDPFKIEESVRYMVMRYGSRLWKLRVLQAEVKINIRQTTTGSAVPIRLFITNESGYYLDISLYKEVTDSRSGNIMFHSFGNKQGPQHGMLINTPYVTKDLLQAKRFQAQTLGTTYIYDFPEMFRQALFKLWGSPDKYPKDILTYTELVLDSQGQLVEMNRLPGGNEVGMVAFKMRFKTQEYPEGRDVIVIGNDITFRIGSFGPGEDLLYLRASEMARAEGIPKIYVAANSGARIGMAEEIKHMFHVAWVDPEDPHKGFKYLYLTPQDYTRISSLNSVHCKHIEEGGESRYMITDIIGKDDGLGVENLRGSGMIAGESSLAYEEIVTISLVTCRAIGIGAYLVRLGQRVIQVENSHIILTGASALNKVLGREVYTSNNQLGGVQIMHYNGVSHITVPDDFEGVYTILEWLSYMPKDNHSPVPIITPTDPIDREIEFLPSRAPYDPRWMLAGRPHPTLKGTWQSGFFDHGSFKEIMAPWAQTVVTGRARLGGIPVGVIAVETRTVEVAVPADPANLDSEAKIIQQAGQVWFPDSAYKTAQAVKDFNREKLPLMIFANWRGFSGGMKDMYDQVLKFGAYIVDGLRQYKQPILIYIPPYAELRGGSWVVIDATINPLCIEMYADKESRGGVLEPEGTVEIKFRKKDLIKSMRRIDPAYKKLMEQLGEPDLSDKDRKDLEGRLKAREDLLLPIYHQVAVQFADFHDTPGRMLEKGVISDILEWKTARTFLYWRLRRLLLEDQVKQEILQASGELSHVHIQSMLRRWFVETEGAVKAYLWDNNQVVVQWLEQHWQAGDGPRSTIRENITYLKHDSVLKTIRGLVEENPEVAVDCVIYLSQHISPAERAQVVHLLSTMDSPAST

## Cc1ccc(-c2ccc(Cl)cc2)cc1C1=C(O)[C@@]2(CC[C@H](OCC(C)C)C2)NC1=O (relative stereo) [1-49, rel-(5R,7R)-3-(4′-chloro-4-methylbiphenyl-3-yl)-4-hydroxy-7-(2-methylpropoxy)-1-azaspiro[4.4]non-3-en-2-one]
[1]
  IC50: > 20000 nM
MCF7; [3]
  IC50: 640 nM
[2]; [4]
  IC50: 10600 nM

## Cc1ccc(-c2ccc(Cl)cc2)c(C)c1C1=C(O)C2(CCC(C)CC2)NC1=O (stereo not shown) [1-4, 3-(4′-chloro-2,4-dimethylbiphenyl-3-yl)-4-hydroxy-8-methyl-1-azaspiro[4.5]dec-3-en-2-one]
[1]
  IC50: 558 nM
MCF7; [3]
  IC50: 54 nM
[2]; [4]
  IC50: 357 nM

## Cc1cc(C)c(-c2ccc(Cl)cc2)cc1C1=C(O)C2(CCCOC2)NC1=O (stereo not shown) [1-8, 3-(4′-chloro-4,6-dimethylbiphenyl-3-yl)-4-hydroxy-7-oxa-1-azaspiro[4.5]dec-3-en-2-one]
[1]
  IC50: > 20000 nM
MCF7; [3]
  IC50: 191 nM
[2]; [4]
  IC50: 5810 nM

## COC1CCC2(CC1)NC(=O)C(c1c(C)cc(C)c(-c3ccc(Cl)cc3)c1C)=C2O (stereo not shown) [1-9, 3-(4′-chloro-2,4,6-trimethylbiphenyl-3-yl)-4-hydroxy-8-methoxy-1-azaspiro[4.5]dec-3-en-2-one]
[1]
  IC50: 276 nM
MCF7; [3]
  IC50: 287 nM
[2]
  IC50: 11400 nM

## Cc1ccc(-c2ccc(Cl)cc2)c(C)c1C1=C(O)C2(CCCOC2)NC1=O (stereo not shown) [1-10, 3-(4′-chloro-2,4-dimethylbiphenyl-3-yl)-4-hydroxy-7-oxa-1-azaspiro[4.5]dec-3-en-2-one]
[1]
  IC50: 9460 nM
MCF7; [3]
  IC50: 1300 nM
[2]
  IC50: 500 nM

## Cc1ccc(-c2ccc(C(F)(F)F)cc2)cc1C1=C(O)C2(CCCCC2)NC1=O [1-12, 4-hydroxy-3-[4 methyl-4′-(trifluoromethyl)biphenyl-3-yl]-1-azaspiro[4.5]dec-3-en-2-one]
[1]
  IC50: > 20000 nM
MCF7; [3]
  IC50: 322 nM
[2]; [4]
  IC50: 871 nM

## Cc1ccc(-c2ccc(C)c(C3=C(O)C4(CCCCC4)NC3=O)c2)cc1 [1-13, 3-(4,4′-dimethylbiphenyl-3-yl)-4-hydroxy-1-azaspiro[4.5]dec-3-en-2-one]
[1]
  IC50: > 20000 nM
MCF7; [3]
  IC50: 410 nM
[2]; [4]
  IC50: 216 nM

## Cc1ccc(-c2ccc(Cl)cc2)cc1C1=C(O)C2CSCCN2C1=O (stereo not shown) [1-21, 7-(4′-chloro-4-methylbiphenyl-3-yl)-8-hydroxy-1,3,4,8a-tetrahydro-6H-pyrrolo[2,1-c][1,4]thiazin-6-one]
[1]
  IC50: 10300 nM
MCF7; [3]
  IC50: 392 nM
[2]
  IC50: 630 nM

## Cc1ccc(-c2ccc(Cl)cc2)cc1C1=C(O)CN(C2CCCCC2)C1=O [1-22, 3-(4′-chloro-4-methylbiphenyl-3-yl)-1-cyclohexyl-4-hydroxy-1,5-dihydro-2H-pyrrol-2-one]
[1]
  IC50: 16300 nM
MCF7; [3]
  IC50: 436 nM
[2]; [4]
  IC50: 2680 nM

## Cc1ccc(-c2ccc(Cl)cc2)cc1C1=C(O)C2(CCCCCCC2)NC1=O [1-23, 3-(4′-chloro-4-methylbiphenyl-3-yl)-4-hydroxy-1-azaspiro[4.7]dodec-3-en-2-one]
[1]
  IC50: 2330 nM
MCF7; [3]
  IC50: 262 nM
[2]; [4]
  IC50: 459 nM

## Cc1ccc(-c2ccc(Cl)cc2)cc1C1=C(O)C2(CCCCCC2)NC1=O [1-26, 3-(4′-chloro-4-methylbiphenyl-3-yl)-4-hydroxy-1-azaspiro[4.6]undec-3-en-2-one]
[1]
  IC50: 3090 nM
MCF7; [3]
  IC50: 188 nM
[2]; [4]
  IC50: 367 nM

## Cc1ccc(-c2ccc(F)cc2)cc1C1=C(O)C2(CCC(OCC(F)(F)F)CC2)NC1=O (stereo not shown) [1-32, 3-(4′-fluoro-4-methylbiphenyl-3-yl)-4-hydroxy-8-(2,2,2-trifluoroethoxy)-1-azaspiro[4.5]dec-3-en-2-one]
[1]
  IC50: 19000 nM
MCF7; [3]
  IC50: 107 nM
[2]; [4]
  IC50: 516 nM

## Cc1ccc(-c2ccc(Cl)cc2)c(C)c1C1=C(O)C2(CCC3(CCCO3)CC2)NC1=O (stereo not shown) [1-34, 11-(4′-chloro-2,4-dimethylbiphenyl-3-yl)-12-hydroxy-1-oxa-9-azadispiro[4.2.4.2]tetradec-11-en-10-one]
[1]
  IC50: 11400 nM
MCF7; [3]
  IC50: 112 nM
[2]; [4]
  IC50: 297 nM

## CO[C@H]1CC[C@]2(CC1)NC(=O)C(c1cc(-c3ccc(F)c(Cl)c3)ccc1C)=C2O [1-43, (5s,8s)-3-(3′-chloro-4′-fluoro-4-methylbiphenyl-3-yl)-4-hydroxy-8-methoxy-1-azaspiro[4.5]dec-3-en-2-one]
[1]
  IC50: > 20000 nM
MCF7; [3]
  IC50: 1220 nM
[2]; [4]
  IC50: 4930 nM

## CO[C@H]1CC[C@]2(CC1)NC(=O)C(c1c(C)ccc(-c3ccc(F)cc3)c1C)=C2O [1-45, (5s,8s)-3-(4′-fluoro-2,4-dimethylbiphenyl-3-yl)-4-hydroxy-8-methoxy-1-azaspiro[4.5]dec-3-en-2-one]
[1]
  IC50: 8830 nM
MCF7; [3]
  IC50: 626 nM
[2]
  IC50: 701 nM

## COC1CCC2(C1)NC(=O)C(c1c(C)ccc(-c3ccc(Cl)cc3)c1C)=C2O (stereo not shown) [1-48, 3-(4′-chloro-2,4-dimethylbiphenyl-3-yl)-4-hydroxy-7-methoxy-1-azaspiro[4.4]non-3-en-2-one]
[1]
  IC50: 10400 nM
MCF7; [3]
  IC50: 852 nM
[2]
  IC50: 1560 nM

## COCC1CCCC2(C1)NC(=O)C(c1cc(-c3ccc(Cl)cc3)ccc1C)=C2O (stereo not shown) [1-51, 3-(4′-chloro-4-methylbiphenyl-3-yl)-4-hydroxy-7-(methoxymethyl)-1-azaspiro[4.5]dec-3-en-2-one]
[1]
  IC50: 5450 nM
MCF7; [3]
  IC50: 253 nM
[2]
  IC50: 415 nM

## COCC1CCCC2(C1)NC(=O)C(c1cc(-c3ccc(Cl)cc3)ccc1Cl)=C2O (stereo not shown) [1-52, 3-(4,4′-dichlorobiphenyl-3-yl)-4-hydroxy-7-(methoxymethyl)-1-azaspiro[4.5]dec-3-en-2-one]
[1]
  IC50: 16000 nM
MCF7; [3]
  IC50: 739 nM
[2]
  IC50: 1790 nM

## Cc1ccc(-c2ccc(Cl)cc2)cc1C1=C(O)C2(CCCCC2)SC1=O [3-2, 3-(4′-chloro-4-methylbiphenyl-3-yl)-4-hydroxy-1-thiaspiro[4.5]dec-3-en-2-one]
MCF7; [5]
  IC50: 461 nM

## Cc1ccc(-c2ccc(Cl)cc2)cc1C1=C(O)CC2(CCCCC2)CC1=O [7-2, 3-(4′-chloro-4-methylbiphenyl-3-yl)-4-hydroxyspiro[5.5]undec-3-en-2-one]
MCF7; [5]
  IC50: 1210 nM
[2]; [4]
  IC50: 501 nM

## Cc1ccc(-c2ccc(Cl)cc2)cc1C1=C(O)CC(C)(C)CC1=O [7-5, 2-(4′-chloro-4-methylbiphenyl-3-yl)-3-hydroxy-5,5-dimethylcyclohex-2-en-1-one]
MCF7; [5]
  IC50: 992 nM
[2]
  IC50: 906 nM

## O=C1C(c2cc(-c3ccc(Cl)cc3)ccc2Cl)C(=O)N2CCCCN12 [8-2, 2-(4,4′-dichlorobiphenyl-3-yl)tetrahydro-1H-pyrazolo[1,2-a]pyridazine-1,3(2H)-dione]
MCF7; [5]
  IC50: 878 nM
[2]
  IC50: 401 nM

## Cc1ccc(-c2ccc(Cl)cc2)cc1C1=C(O)CC(C)(C)NC1=O [9-1, 3-(4′-chloro-4-methylbiphenyl-3-yl)-4-hydroxy-6,6-dimethyl-5,6-dihydropyridin-2(1H)-one]
MCF7; MCF7 cells
  IC50: 1260 nM
[2]; [4]
  IC50: 3760 nM

## Cc1ccc(-c2ccc(Cl)cc2)cc1C1=C(O)CC(C)(C)N(C)C1=O [9-4, 3-(4′-chloro-4-methylbiphenyl-3-yl)-4-hydroxy-1,6,6-trimethyl-5,6-]
MCF7; MCF7 cells
  IC50: 3440 nM
[2]; [4]
  IC50: 2540 nM

## Cc1ccc(-c2ccc(Cl)cc2)cc1C1C(=O)N(C)OC(C)(C)C1=O (stereo not shown) [11-1, 4-(4′-chloro-4-methylbiphenyl-3-yl)-2,6,6-trimethyl-1,2-oxazinane-3,5-dione]
MCF7; MCF7 cells
  IC50: 3330 nM
[2]
  IC50: 19200 nM
